Several values for one entry are separate records, joined by “and”; a condition that tells them apart may be missing. Identical values can stand only once.
Assays:
healthy male S.D. rats [1] = assay: Feces production in rats given Rheum palmatum Linne extracts for three weeks (Example 2); assay type: in vivo, rat; conditions: oral everyday, Rheum palmatum crude extract 500, Bisacodyl 1.75, Sennosides 3.55, STD03 180, STD05-1 12, STD05-2 24 mg/kg; for Water content: feces; for Pellet count / Wet Weight: total of the six rats in the group
Procedure: The laxative activities by Rheum palmatum Linne extracts were studied. A crude Rheum palmatum Linne extract and STD05 were obtained from SunTen Phytotech Co., Ltd. (Jhonghe City, Taiwan). Commercial available laxatives, Through® (Chung Mei Pharmaceutical Co., Ltd.; active ingredient: Sennosides 20 mg, as Sennosides A+B 12 mg, Lot. 009A 051) and Dulcolax® (Boehringer Ingelheim, Taiwan, Ltd.; active ingredient: Bisacodyl; Lot. 480-4942) were obtained from a pharmacy.
Forty-two healthy male S.D. rats (8 weeks old; National Laboratory Animal Center, Taiwan) were divided into seven groups (six in each) and tested for the laxative activity by Rheum palmatum Linne extracts. The rats in one group were not fed with any extract or drug and used as negative controls. The rats in the second and third group were given Sennosides (3.55 mg/kg) and Bisacodyl (1.75 mg/kg), respectively, and used as positive controls. The Rats in the other four groups were given Rheum palmatum Linne crude extract (500 mg/kg), filtered crude extract STD03 (180 mg/kg), and STD05 (STD05-1: 12 mg/kg and STD05-2: 24 mg/kg), respectively. All substances were administered orally everyday for three weeks.
The experiments were carried out under conditions in which temperature, humidity, and lighting were all controlled. Each rat was fed standard rat food and water ad libitum in housing that provided a 12-hour light/dark cycle. The rats were divided into seven groups according to the body weights.
The first part of the experiment studied the effect of the above-mentioned extracts on feces production. During the three-week period, any rat that appeared dying was euthanized, dissected, and studied to check for any illness or injures. Any complications or illness were analyzed by H&E stains to determine the cause of death and to allow for dosage reconsiderations for future experiments.
During this period, the body weights of the rats were weighed each day and recorded. Feces of each rat were studied three times during the period for any unusual observations. Specifically, the amounts of feces were weighed on Days 11, 15, 18, and 21. During observation, each rat was placed in a metabolic cage. Feces were collected every twenty-four hours. The number of collected feces pellets was counted, and the pellets' shapes and colors were evaluated. After weighing the moist feces, they were dried in an oven at 100° C. for twenty-four hours. The water content from the feces was calculated according to the following formula: Water content percentage=[(wet weight−dry weight)/wet weight]×100%.
Intestine motility data were expressed as mean±SD. Data were analyzed using the one-way ANOVA method. For comparison within the groups, a Post hoc Comparison was applied. In both feces production and intestine motility analyses, p<0.05 indicates significant differences. For the feces production tests, the data for each group and each time point represent the total wet weight or pellet count of the six rats in the group.

[2] = Body weight of rats over the 10-day period (Example 3); assay type: in vivo, rat; set-up: Body weight Difference: unit not given here; conditions: Group II, Sennosides 3.35 mg/kg/day, STD05 24 mg/kg, ARE 24 mg/kg, Chrysophanol 4 mg/kg, Emodin 4 mg/kg
Procedure: The aforementioned STD05 and compounds were studied for the laxative activity. Healthy male S.D. rats (BioLASCO Taiwan Co. Ltd.) were divided into three groups (i.e., Groups 1-3) in this study. In Group I, 6 rats, as negative control, were given no treatment; 6 rats, as positive control, were given 3.35 mg/kg/day Sennosides (Through®, Chung Mei Pharmaceutical Co., Ltd; Active ingredient: Sennosides 20 mg, as sennoside A+B 12 mg, Lot. 012F 006); 6 rats were treated STD05 (8 mg/kg/day); 6 rats were treated with an extract fraction containing aloe-emodin, rhein, and emodin (“ARE”, 8 mg/kg/day); 6 rats were treated with Aloe-emodin (4 mg/kg/day); and 6 rats were treated with Rhein (4 mg/kg/day). In Group II, 6 rats, as negative control, were given no treatment; 6 rats, as positive control, were given 3.35 mg/kg/day Sennosides; 6 rats were treated STD05 (24 mg/kg/day); 6 rats were treated with an extract fraction containing ARE (24 mg/kg/day); 6 rats were treated with Chrysophanol (4 mg/kg/day); and 6 rats were treated with Emodin (4 mg/kg/day). In Group III, 6 rats, as negative control, were given no treatment; 6 rats were treated with Physcoin (4 mg/kg/day); and 6 rats were treated with a mixture of chrysophanol and physcion (8 mg/kg/day, “CP”). The experiments were carried out under controlled temperature, humidity, and lighting. Each rat was fed standard rat food and water ad libitum in housing that provided a 12-hour light/dark cycle. For statistical comparison, all of the rats were divided into six sets according to the body weights. The first part of the experiment studied the effect of the test substances on feces production. During the 10-day period, the body weights of the rats were weighed each day and recorded. The rat's feces was also studied three times in the manner described above during the 10-day period for any unusual observations. During the 10-day period, any rat that appeared dying was euthanized, dissected, and examined for any illness or injury. Any complications or illness were analyzed by H&E stains to determine the cause of death and to allow for dosage reconsiderations for future experiments. Summarized in Table 4 below are the effects of the compounds, mixtures, or extracts on the rat body weights.

healthy male S.D. rats [3] = assay: Feces production in rats over the 10-day period (Example 3); assay type: in vivo, rat; conditions: for increase of the feces amount (wet weight): vs control of the same group; for Pellet count / Water content / Wet Weight: Group II, Sennosides 3.35 mg/kg, STD05 24 mg/kg, ARE 24 mg/kg, Chrysophanol 4 mg/kg, Emodin 4 mg/kg
Procedure: During this period, the body weights of the rats were weighed each day and recorded. Feces of each rat were studied three times during the period for any unusual observations. Specifically, the amounts of feces were weighed on Days 11, 15, 18, and 21. During observation, each rat was placed in a metabolic cage. Feces were collected every twenty-four hours. The number of collected feces pellets was counted, and the pellets' shapes and colors were evaluated. After weighing the moist feces, they were dried in an oven at 100° C. for twenty-four hours. The water content from the feces was calculated according to the following formula: Water content percentage=[(wet weight−dry weight)/wet weight]×100%. (I) The results are summarized in Table 2 below: The aforementioned STD05 and compounds were studied for the laxative activity. Healthy male S.D. rats (BioLASCO Taiwan Co. Ltd.) were divided into three groups (i.e., Groups 1-3) in this study. In Group I, 6 rats, as negative control, were given no treatment; 6 rats, as positive control, were given 3.35 mg/kg/day Sennosides (Through®, Chung Mei Pharmaceutical Co., Ltd; Active ingredient: Sennosides 20 mg, as sennoside A+B 12 mg, Lot. 012F 006); 6 rats were treated STD05 (8 mg/kg/day); 6 rats were treated with an extract fraction containing aloe-emodin, rhein, and emodin (“ARE”, 8 mg/kg/day); 6 rats were treated with Aloe-emodin (4 mg/kg/day); and 6 rats were treated with Rhein (4 mg/kg/day). In Group II, 6 rats, as negative control, were given no treatment; 6 rats, as positive control, were given 3.35 mg/kg/day Sennosides; 6 rats were treated STD05 (24 mg/kg/day); 6 rats were treated with an extract fraction containing ARE (24 mg/kg/day); 6 rats were treated with Chrysophanol (4 mg/kg/day); and 6 rats were treated with Emodin (4 mg/kg/day). In Group III, 6 rats, as negative control, were given no treatment; 6 rats were treated with Physcoin (4 mg/kg/day); and 6 rats were treated with a mixture of chrysophanol and physcion (8 mg/kg/day, “CP”). The experiments were carried out under controlled temperature, humidity, and lighting. Each rat was fed standard rat food and water ad libitum in housing that provided a 12-hour light/dark cycle. For statistical comparison, all of the rats were divided into six sets according to the body weights. The first part of the experiment studied the effect of the test substances on feces production. During the 10-day period, the body weights of the rats were weighed each day and recorded. The rat's feces was also studied three times in the manner described above during the 10-day period for any unusual observations. During the 10-day period, any rat that appeared dying was euthanized, dissected, and examined for any illness or injury. Any complications or illness were analyzed by H&E stains to determine the cause of death and to allow for dosage reconsiderations for future experiments. Summarized in Table 4 below are the effects of the compounds, mixtures, or extracts on the rat body weights. During the period, feces produced by the rats were studied days 1, 5, and 10 in the same manner described above. […] In the 10-day period, the rats administered with STD05 produced more feces (wet weight) that the rats in the control group by about 32%. In addition, the pellet counts for the rats administered with STD05 were greater than those for the control rats by about 20%. Furthermore, STD05 increased the water content in feces by about 18%. The same experiments were conducted on rats administered with physcion, aloe-emodin, chrysophanol, rhein, emodin, CP, and ARE.

[4] = Enteric absorption rate (statement, no method given); conditions: general statement
[5] = Side effects compared with Rheum palmatum Linne herb extracts (statement, no method given); conditions: general statement

For `CC(=O)Oc1ccc(C(c2ccc(OC(C)=O)cc2)c2ccccn2)cc1` [Bisacodyl], the Water content (healthy male S.D. rats [1]; Day 11) was 64.45%, the Pellet count (healthy male S.D. rats [1]; Day 11) was 116 and the “Wet Weight” value (healthy male S.D. rats [1]; Day 11) was 33.84 g. The Water content (healthy male S.D. rats [1]; Day 15) was 68.34%, the Pellet count (healthy male S.D. rats [1]; Day 15) was 110 and the “Wet Weight” value (healthy male S.D. rats [1]; Day 15) was 41.64 g. The Water content (healthy male S.D. rats [1]; Day 18) was 66.65%, the Pellet count (healthy male S.D. rats [1]; Day 18) was 81 and the “Wet Weight” value (healthy male S.D. rats [1]; Day 18) was 30.14 g. The Water content (healthy male S.D. rats [1]; Day 21) was 68.02%, the Pellet count (healthy male S.D. rats [1]; Day 21) was 108 and the “Wet Weight” value (healthy male S.D. rats [1]; Day 21) was 40.13 g.

In the case of `Cc1cc(O)c2c(c1)C(=O)c1cccc(O)c1C2=O` [Chrysophanol, chrysophanol], the Body weight Difference, Mean ([2]; group mean, Day 10 minus Day 1) is reported as 33 g, the Body weight End Day 10, Mean ([2]; group mean) is reported as 376 g and the “Body weight Difference” value ([2]; individual rats, Day 10 minus Day 1) is reported as 40 and 20 and 30 (2×) and 25 and 50. The “Body weight End Day 10” value ([2]; individual rats) was 370 (3×) and 385 and 350 and 410, the “increase of the feces amount (wet weight)” value (healthy male S.D. rats [3]; Day 1) was 19% and the “increase of the feces amount (wet weight)” value (healthy male S.D. rats [3]; Day 5) was 16%. For the same compound, the “increase of the feces amount (wet weight)” value (healthy male S.D. rats [3]; Day 10) was 14%, the Pellet count (healthy male S.D. rats [3]; Day 1) was 128 and the Water content (healthy male S.D. rats [3]; Day 1) was 50.82%. For the same compound, the “Wet Weight” value (healthy male S.D. rats [3]; Day 1) was 28.86 g, the Pellet count (healthy male S.D. rats [3]; Day 5) was 119 and the Water content (healthy male S.D. rats [3]; Day 5) was 51.22%. The “Wet Weight” value (healthy male S.D. rats [3]; Day 5) was 26.48 g, the Pellet count (healthy male S.D. rats [3]; Day 10) was 127 and the Water content (healthy male S.D. rats [3]; Day 10) was 56.52%. The “Wet Weight” value (healthy male S.D. rats [3]; Day 10) was 28.83 g, the “increase of the feces amount (wet weight), average” value (healthy male S.D. rats [3]; average of Days 1, 5 and 10) was 16% and the enteric absorption rate [4] was “very low”. The “side effects often seen in herb extracts (cramping, bloating, gas, and diarrhea)” value [5] was “do not have the side effects”.
